We go through eight molecules from US20240325340A1, “ISOFORM SPECIFIC AGONISTS TARGETING AKT KINASE” (Thomas Jefferson University, priority 2021, published 2024).

The nature of one data set: Compound stability. In kind it is physicochemical.
The next data set has as its system cells. In words: Cellular toxicity (cells not specified). The class given is cell-based.
Another data set deals with recombinant pAkt1 (Homo sapiens, UniProt P31749). In words: Recombinant phospho-Akt dephosphorylation by PP2A or total cellular phosphatase extracts (immunoblot pT308). In kind it is biochemical. The settings on record: 40 μM compound, 30 minutes at 30° C. How it is done: FIG. 1A: Recombinant phospho-Akt (50 ng) were pre-mixed with DMSO or with 40 μM 4H-Chromenes with carboxylate side chain (SC-79 and HA-14) or with 60 μM malononitrile side chain (T625) at 4° C. Then recombinant PP2A (70 ng PP2A-C) or total cellular phosphatase extracts were added and incubated for 30 minutes at 30° C. After incubation, protein extracts were subjected to immunoblot analysis using antibodies detecting phosphorylated Akt (T308), total Akt and PP2A catalytic subunit. FIG. 1B comprises a graph showing the percentage of Akt dephosphorylation at 30 minutes (Dephos. %) (n=6) *P<0.01 vs. DMSO.

In data set [1] the test system is Akt. In words: Akt activation (phospho-T308, p-PRAS40) in human epithelial cells (Hacat). The class given is cell-based. The note with it: for efficacy in Akt activation compared to RA97 / length of action in Akt activation compared to RA97 / phosphorylation of Akt substrate PRAS40: 40 μM, serum-starved Hacat; for efficacy in Akt activation compared to RA97 / length of action in Akt activation compared to RA97: 2 hr, 4 hr or 24 hr; for synergy with FBS in Akt activation: 10 μM or 20 μM with 0.25% fetal bovine serum; for synergy with FBS in Akt activation / Akt activation at low dose (phospho-T308): Hacat; for synergy with FBS in Akt activation / Akt activation at low dose (phospho-T308) / phosphorylation of Akt substrate PRAS40: 6 hr; for Akt activation at low dose (phospho-T308): 10 μM or 20 μM. The protocol:
FIGS. 6A-6D illustrate immunoblots for Akt activators converted from non-PAINS Akt antagonists. FIG. 6A: 40 μM of each compound derived from sulfonamides, di-tert butylphenols, or pyridines were incubated in human epithelial cells (A549) for 2.5 hr. Lysates were probed for phospho-T308 and total Akt (tAkt) using ProteinSimple WES digital western system. Insulin was uses as positive control. […] 40 μM of each compound was incubated in serum-starved human epithelial cells (Hacat) for 2 hr, 4 hr, or 24 hr as indicated. Cell lysates were probed for phospho-T308 and total Akt (tAkt). […] 10 μM or 20 μM of T775 or T776 were incubated with or without 0.25% fetal bovine serum (FBS) medium in human epithelial cells (Hacat) for 6 hr. Cell lysates were probed for phospho-T308, total Akt (tAkt), and GAPDH. […] 40 μM of each compound was incubated in serum-starved human epithelial cells (Hacat) for 6 hr. Cell lysates were probed for phospho-T308, total Akt (tAkt), Akt substrate, p-PRAS40, and GAPDH.

The next data set relates to A549 cells. As to the kind of experiment: Cytotoxicity by release of lactate dehydrogenase (LDH) in A549 cells. In kind it is cell-based, human. The note with it: 40 μM, 24 hours, serum-free media. The protocol: Cytotoxicity was determined by the release of lactate dehydrogenase (LDH) into cell culture media. A549 cells were incubated with 40 μM of each compound for 24 hours in serum-free media (n=3 for each compound). FIG. 8B: A visual assessment of cell morphology after 24 hrs treatment with 40 μM of each compound in serum-free media. 100× images are shown.

Another data set has as its system Hacat cells. As to the kind of experiment: Cellular toxicity / cell morphology in Hacat cells after 24 hrs. The settings on record: 40 μM. In kind it is cell-based, human.
Data set [2] has as its system Akt. As to the kind of experiment: Ceramide and cathepsin G blockade of insulin activation of Akt in H9C2 myoblasts. The class given is cell-based. The protocol: H9C2 myoblasts or neonatal rat myocytes were treated with neutrophil protease Cathepsin G (0.01 U/mL), 4 hr or with 100 μM C2-Ceramide (100 μM), 2 hr. Then cells were stimulated with insulin with or without 30 μM T625 for 30 minutes. Lysates were immunoblotted with the indicated antibodies.

For data set [3] the following is noted: cited from earlier work.

“Also recorded” adds a separate entry of the source.

recombinant pAkt1, sequence (P31749 whole entry): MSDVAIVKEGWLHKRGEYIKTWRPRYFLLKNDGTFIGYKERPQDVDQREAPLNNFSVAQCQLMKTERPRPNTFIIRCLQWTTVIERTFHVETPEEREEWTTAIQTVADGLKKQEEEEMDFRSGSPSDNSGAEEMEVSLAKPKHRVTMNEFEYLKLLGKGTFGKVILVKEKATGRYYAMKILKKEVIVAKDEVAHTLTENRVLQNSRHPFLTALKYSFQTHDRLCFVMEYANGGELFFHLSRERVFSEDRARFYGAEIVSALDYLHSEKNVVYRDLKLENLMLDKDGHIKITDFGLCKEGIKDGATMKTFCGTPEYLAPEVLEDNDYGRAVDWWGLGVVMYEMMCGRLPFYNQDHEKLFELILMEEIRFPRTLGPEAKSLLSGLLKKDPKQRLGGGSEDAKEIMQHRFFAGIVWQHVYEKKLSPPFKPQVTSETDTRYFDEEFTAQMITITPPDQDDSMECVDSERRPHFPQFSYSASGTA

`CCOC(=O)C1=C(N)Oc2ccc(Cl)cc2C1C(C#N)C(=O)OCC` (centres unmarked) [SC79]: the compound stability entry in the data set “Compound stability” is “highly labile”. The cellular toxicity result in the data set on cells was “toxic to cells”. Moreover, the “block of recombinant pAkt1 dephosphorylation by PP2A and cellular phosphatases” value at recombinant pAkt1 was “enhance intrinsic resistance of the Akt kinase to dephosphorylation; also recorded: block recombinant pAkt1 dephosphorylation by PP2A and cellular phosphatases”.
Consider `CCOC(=O)C1=C(N)Oc2ccc(Br)cc2C1C(C#N)C(=O)OCC` (centres unmarked) [HA14], for which the compound stability result in “Compound stability” is recorded as “highly labile”. In addition, the cellular toxicity entry with cells is given as “toxic to cells”. Moreover, the “block of recombinant pAkt1 dephosphorylation by PP2A and cellular phosphatases” value at recombinant pAkt1 is “enhance intrinsic resistance of the Akt kinase to dephosphorylation; also recorded: block recombinant pAkt1 dephosphorylation by PP2A and cellular phosphatases”.
Regarding `CCCc1nc2ccc(Cl)cc2c(-c2ccccc2)c1C(=O)OCC` [T748, ethyl 6-chloro-4-phenyl-2-propylquinoline-3-carboxylate], in the data set with Akt [1], the “efficacy in Akt activation compared to RA97” value (from here on “efficacy … compared to RA97”) was “improved efficacy” and the “length of action in Akt activation compared to RA97” value (“length of action … compared to RA97” below) is “improved length of action”. Besides, the “toxicity compared to RA97” value in the data set on cells is given as “lack of toxicity”.
For `CCCc1nc2ccc(Cl)cc2c(CCC(=O)OCC)c1C(=O)OCC` [T775, ethyl 6-chloro-4-(3-ethoxy-3-oxopropyl)-2-propylquinoline-3-carboxylate], the “cellular toxicity (LDH release)” value with A549 cells is “failed to show significant cellular toxicity”. Besides, the cellular toxicity result in the data set on Hacat cells is listed as “failed to show significant cellular toxicity”. For the same molecule, in the data set with Akt [1], the “synergy with FBS in Akt activation” value is “synergize with FBS”, the “Akt activation at low dose (phospho-T308)” value is “activate Akt”, the “efficacy … compared to RA97” value was “improved efficacy” and the “length of action … compared to RA97” value was “improved length of action”. Besides, the “phosphorylation of Akt substrate PRAS40” value in the data set with Akt [1] was “phosphorylated Akt substrate, PRAS40”. For the same molecule, the “toxicity compared to RA97” value with cells is “lack of toxicity”.
`CCCCCCCCCCCCC/C=C/[C@@H](O)[C@H](CO)NC(C)=O` [C2-ceramide, reference compound]: the “block of insulin activation of Akt” value with Akt [2] (100 μM, 2 hr) is given as “block insulin activation of Akt”.
Regarding `CC(C)(Sc1cc(C(C)(C)C)c(O)c(C(C)(C)C)c1)Sc1cc(C(C)(C)C)c(OC(=O)CCC(=O)O)c(C(C)(C)C)c1` [Succinobucol], the insulin sensitivity result in data set [3] (literature) was “improve insulin sensitivity”. Also, the drug safety result in data set [3] (numerous clinical trials of specific diabetic patient populations) is “established drug safety record”.
Regarding `CCOC(=O)CCc1c(C(=O)OCC)c(C(C)(C)C)nc2ccc(Cl)cc12` [T776, ethyl 2-tert-butyl-6-chloro-4-(3-ethoxy-3-oxopropyl)quinoline-3-carboxylate], the “cellular toxicity (LDH release)” value with A549 cells is listed as “failed to show significant cellular toxicity”. Also, the cellular toxicity result with Hacat cells is recorded as “failed to show significant cellular toxicity”. In the data set on Akt [1], the “synergy with FBS in Akt activation” value is “synergize with FBS”, the “Akt activation at low dose (phospho-T308)” value is reported as “activate Akt”, the “efficacy … compared to RA97” value is “improved efficacy” and the “length of action … compared to RA97” value is listed as “improved length of action”. Besides, in the data set with Akt [1], the “phosphorylation of Akt substrate PRAS40” value was “phosphorylated Akt substrate, PRAS40”. Also, the “toxicity compared to RA97” value in the data set on cells is “lack of toxicity”.

B1: cathepsin G: neutrophil protease Cathepsin G (protein, UniProt P08311 21-244, looked up)
Cathepsin G: IIGGRESRPHSRPYMAYLQIQSPAGQSRCGGFLVREDFVLTAAHCWGSNINVTLGAHNIQRRENTQQHITARRAIRHPQYNQRTIQNDIMLLQLSRRVRRNRNVNPVALPRAQEGLRPGTLCTVAGWGRVSMRRGTDTLREVQLRVQRDRQCLRIFGSYDPRRQICVGDRRERKAAFKGDSGGPLLCNNVAHGIVSYGKSSGVPPEVFTRVSSFLPWIRTTMRS
For the molecule B1, the “block of insulin activation of Akt” value in the data set with Akt [2] (0.01 U/mL, 4 hr) is “block insulin activation of Akt”.
